Active and inactive are the calls of the source. The rule behind the calls is not given here.
Legend:
[1] = Stability in rat plasma at 37 degreeC; assay type: ADME, cell-free
[2] = Stability in mouse plasma at 37 degreeC; assay type: ADME, cell-free
[3] = Stability in mouse thymus assessed as compound remaining at 50 mg/kg, po measured for 0.083 to 8 hrs by HPLC analysis; assay type: ADME, organism-based; settings: in vivo, time 0.083-8 hrs
[4] = Drug metabolism in mouse bone marrow assessed as (4bR,9S)-1-(hydroxymethyl)-3,7-dimethoxy-11-methyl-6-oxo-6,8a,9,10-tetrahydro-5H-9,4b-(epiminoethano)phenanthren-4-yl cinnamate metabolite formation at 50 mg/kg, po measured for 0.083 to 8 hrs by HPLC analysis; assay type: ADME, organism-based; settings: in vivo, time 0.083-8 hrs
[5] = Drug metabolism in rat plasma assessed as cinnamic acid metabolite formation at 50 mg/kg, po measured for 24 hrs by HPLC-UV analysis; assay type: ADME, organism-based; settings: in vivo
[6] = Drug metabolism in mouse liver assessed as cinnamic acid metabolite formation at 50 mg/kg, po measured for 0.083 to 8 hrs by HPLC analysis; assay type: ADME, organism-based; settings: in vivo, time 0.083-8 hrs
[7] = Drug metabolism in rat plasma assessed as cinnamic acid metabolite formation at 50 mg/kg, po measured for 24 hrs by HRMS analysis; assay type: ADME, organism-based; settings: in vivo
[8] = Stability in mouse blood assessed as compound remaining at 50 mg/kg, po measured for 0.083 to 8 hrs by HPLC analysis; assay type: ADME, organism-based; settings: in vivo, time 0.083-8 hrs
[9] = Drug metabolism in rat plasma assessed as double hydrolyzation/double hydroxylation-mediated metabolite formation at 50 mg/kg, po measured for 24 hrs by HRMS analysis; assay type: ADME, organism-based; settings: in vivo
[10] = Drug metabolism in mouse plasma assessed as cinnamic acid metabolite formation administered orally by HRMS analysis; assay type: ADME; settings: po
[11] = Drug metabolism in Sprague-Dawley rat plasma assessed as (4bR,9S)-1-(hydroxymethyl)-3,7-dimethoxy-11-methyl-6-oxo-6,8a,9,10-tetrahydro-5H-9,4b-(epiminoethano)phenanthren-4-yl cinnamate metabolite formation at 5 mg/kg, iv measured for 24 hrs by HPLC analysis; assay type: ADME, organism-based; settings: in vivo
[12] = Drug metabolism in mouse thymus assessed as (4bR,9S)-1-(hydroxymethyl)-3,7-dimethoxy-11-methyl-6-oxo-6,8a,9,10-tetrahydro-5H-9,4b-(epiminoethano)phenanthren-4-yl cinnamate metabolite formation at 50 mg/kg, po measured for 0.083 to 8 hrs by HPLC analysis; assay type: ADME, organism-based; settings: in vivo, time 0.083-8 hrs
[13] = Drug metabolism in rat plasma assessed as hydrolyzation/demethylation-mediated metabolite formation at 50 mg/kg, po measured for 24 hrs by HRMS analysis; assay type: ADME, organism-based; settings: in vivo
[14] = Drug metabolism in mouse lymph node assessed as (4bR,9S)-1-(hydroxymethyl)-3,7-dimethoxy-11-methyl-6-oxo-6,8a,9,10-tetrahydro-5H-9,4b-(epiminoethano)phenanthren-4-yl cinnamate metabolite formation at 50 mg/kg, po measured for 0.083 to 8 hrs by HPLC analysis; assay type: ADME, organism-based; settings: in vivo, time 0.083-8 hrs
Mus musculus [15] = assay: Anti-aplastic anemia activity in C57BL/6J mouse model of immune-mediated bone marrow failure assessed as decrease in ratio of CD8+ to CD4+ T cells at 5 to 15 mg/kg, IG qd treated for 12 days by flow cytometry; assay type: functional, organism-based; settings: dose 5-15 mg/kg, time 12.0 day
Mus musculus [16] = assay: Anti-aplastic anemia activity in BALB/c mouse model of immune-mediated bone marrow failure assessed as increase in peripheral red blood cells at 10 mg/kg, po treated for 14 days; assay type: functional, organism-based; settings: time 14.0 day
[17] = Cmax in Sprague-Dawley rat at 50 mg/kg, po measured for 0.083 to 24 hrs by HPLC analysis; assay type: ADME, organism-based; settings: in vivo, time 0.083-24 hrs
CTLL-2 [18] = assay: Induction of ferroptosis in mouse CTLL-2 cells assessed as increase in free Fe2+ level incubated for 16 hrs by FerroOrange staining based flow cytometry; assay type: functional, cell-based; settings: dose 7.5-30 µM
Mus musculus [19] = assay: Anti-aplastic anemia activity in C57BL/6J mouse model of immune-mediated bone marrow failure assessed as restoration of naive CD8+ T cells at 5 to 15 mg/kg, IG qd treated for 12 days by flow cytometry; assay type: functional, organism-based; settings: dose 5-15 mg/kg, time 12.0 day
NRK-52E = assay: Induction of ferroptosis in rat NRK-52E cells assessed as increase in intracellular Ca2+ concentration at 10 uM by Fluo-4 AM dye based analysis; assay type: functional, cell-based
[20] = Acute toxicity in 12 hr-fasted KM mouse assessed as maximum tolerable dose administered orally as single dose measured for 14 days; settings: in vivo, route po, time 14 day
[21] = Acute toxicity in 12 hr-fasted KM mouse assessed as abnormalities in animal at 10 g/kg, po administered as single dose measured for 14 days; assay type: organism-based; settings: in vivo, 10000 mg/kg, 336 h, time 14 day
HepG2 = assay: Cytotoxicity against human HepG2 cells assessed as inhibition of cell viability incubated for 72 hrs by CCK8 assay; assay type: functional, cell-based; settings: HepG2, 72 h
CD8-positive T cell [22] = assay: Inhibition of CD3/CD28-activated CD8-positive T cell activation in BALB/c mouse lymph nodes assessed as decrease in glucose consumption at 1 to 10 uM incubated for 72 hrs; assay type: functional, tissue-based; settings: Lymph node, dose 1-10 µM
HL-60 = assay: Cytotoxicity against human HL-60 cells assessed as inhibition of cell viability incubated for 72 hrs by CCK8 assay; assay type: functional, cell-based; settings: HL-60, 72 h
CD8-positive T cell [23] = assay: Inhibition of CD3/CD28-activated CD8-positive T cell proliferation in BALB/c mouse lymph nodes incubated for 72 hrs by CFSE staining based flow cytometry; assay type: functional, tissue-based; settings: Lymph node, dose 1-10 µM
[24] = Induction of ferroptosis in mouse CTLL-2 cells assessed as increase in intracellular Ca2+ concentration incubated for 45 mins by Fluo-4 AM dye based analysis; assay type: functional, cell-based; settings: CTLL-2, 0.75 h
CTLL-2 [25] = assay: Cytotoxicity against mouse CTLL-2 cells assessed as inhibition of cell viability incubated for 72 hrs by CCK8 assay; assay type: functional, cell-based; settings: CTLL-2, 72 h, read-out: IC50
Mus musculus [26] = assay: Anti-aplastic anemia activity in C57BL/6J mouse model of immune-mediated bone marrow failure assessed as CD4+ T cells at 10 mg/kg, IG qd treated for 12 days by flow cytometry (reference value: 12.93 %); assay type: functional; settings: time 12 day
CTLL-2 [27] = assay: Induction of ferroptosis in mouse CTLL-2 cells assessed as increase in pMEK level at 7.5 to 30 uM incubated for 16 hrs by Western blot analysis; assay type: functional, cell-based; settings: dose 7.5-30 µM
CTLL-2 [28] = assay: Induction of ferroptosis in mouse CTLL-2 cells assessed as increase in pERK level at 7.5 to 30 uM incubated for 16 hrs by Western blot analysis; assay type: functional, cell-based; settings: dose 7.5-30 µM
Mus musculus [29] = assay: Anti-aplastic anemia activity in C57BL/6J mouse model of immune-mediated bone marrow failure assessed as CD8+ T cells at 15 mg/kg, IG qd treated for 12 days by flow cytometry (reference value: 72.15 %); assay type: functional; settings: time 12 day
CD8-positive T cell [30] = assay: Inhibition of CD3/CD28-activated CD8-positive T cell activation in BALB/c mouse lymph nodes assessed as decrease in CD69 expression level at 1 to 10 uM incubated for 72 hrs by flow cytometry; assay type: functional, tissue-based; settings: Lymph node, dose 1-10 µM
Mus musculus [31] = assay: Anti-aplastic anemia activity in C57BL/6J mouse model of immune-mediated bone marrow failure assessed as increase in peripheral red blood cells treated intragastrically once daily for 21 days; assay type: functional, organism-based; settings: dose 5-15 mg/kg, route ig, time 21.0 day

In the case of `COC1=C[C@@H]2[C@@H]3Cc4c(COC(=O)/C=C/c5ccccc5)cc(OC)c(OC(=O)/C=C/c5ccccc5)c4[C@]2(CCN3C)CC1=O`, the Stability [1] is reported as “Unstable”, the Stability [2] is reported as “Unstable” and the Stability [3] is reported as “Unstable”. The Drug metabolism [4] was “metabolite_detected”, the Drug metabolism [5] was “metabolite_detected” and the Drug metabolism [6] was “metabolite_detected”. The Drug metabolism [7] was “metabolite_notdetected”, the Stability [8] was “Unstable” and the Drug metabolism [9] was “metabolite_detected”. The Drug metabolism [10] was “metabolite_detected”, the Drug metabolism [11] was “metabolite_detected” and the Drug metabolism [12] was “metabolite_detected”. The Drug metabolism [13] was “metabolite_detected” and the Drug metabolism [14] was “metabolite_detected”.
For `COC1=C[C@@H]2[C@@H]3Cc4c(CO)cc(OC)c(OC(=O)/C=C/c5ccccc5)c4[C@]2(CCN3C)CC1=O`, the Activity (Mus musculus [15]) was “Active”, the Activity (Mus musculus [16]) was “Active” and the Cmax [17] was 3590 ng/mL. For the same compound, the Activity (CTLL-2 [18]) was “Dose-dependent-effect”, the Activity (Mus musculus [19]) was “Active; Partial Restoration Of Naive Cd8+ T Cells Was Observed” and the Activity (NRK-52E) was “Not active; Elevation Was Smaller Than In Mouse Ctll-2 Cells”. For the same compound, the MTD at 336 h [20] was > 10000 mg/kg, the Activity [21] was “Non-toxic” and the IC50 (HepG2) was 492 µM. The inhibition (CD8-positive T cell [22]) was “Active”, the IC50 (HL-60) was 133 µM and the inhibition (CD8-positive T cell [23]) was “Dose-dependent-effect”. The EC50 [24] was 10.1 µM, the IC50 (CTLL-2 [25]) was 37.9 µM and the Activity (Mus musculus [26]) was 21.08%. For the same compound, the Activity (CTLL-2 [27]) was “Active”, the Activity (CTLL-2 [28]) was “Active” and the Activity (Mus musculus [29]) was 35.23%. For the same compound, the inhibition (CD8-positive T cell [30]) was “Active” and the Activity (Mus musculus [31]) was “Dose-dependent-effect”.
